How the values were obtained:
Assay in all cases: biochemical
Set-up in all cases: radiometric methyltransferase selectivity assay with tritiated SAM, per cent activity
Details in all cases: read-out: % of control remaining
GLP = molecular target: T1, GLP (Homo sapiens, UniProt Q9H9B1)
T1 construct: gene EHMT1
T1 sequence (Q9H9B1 1-1298): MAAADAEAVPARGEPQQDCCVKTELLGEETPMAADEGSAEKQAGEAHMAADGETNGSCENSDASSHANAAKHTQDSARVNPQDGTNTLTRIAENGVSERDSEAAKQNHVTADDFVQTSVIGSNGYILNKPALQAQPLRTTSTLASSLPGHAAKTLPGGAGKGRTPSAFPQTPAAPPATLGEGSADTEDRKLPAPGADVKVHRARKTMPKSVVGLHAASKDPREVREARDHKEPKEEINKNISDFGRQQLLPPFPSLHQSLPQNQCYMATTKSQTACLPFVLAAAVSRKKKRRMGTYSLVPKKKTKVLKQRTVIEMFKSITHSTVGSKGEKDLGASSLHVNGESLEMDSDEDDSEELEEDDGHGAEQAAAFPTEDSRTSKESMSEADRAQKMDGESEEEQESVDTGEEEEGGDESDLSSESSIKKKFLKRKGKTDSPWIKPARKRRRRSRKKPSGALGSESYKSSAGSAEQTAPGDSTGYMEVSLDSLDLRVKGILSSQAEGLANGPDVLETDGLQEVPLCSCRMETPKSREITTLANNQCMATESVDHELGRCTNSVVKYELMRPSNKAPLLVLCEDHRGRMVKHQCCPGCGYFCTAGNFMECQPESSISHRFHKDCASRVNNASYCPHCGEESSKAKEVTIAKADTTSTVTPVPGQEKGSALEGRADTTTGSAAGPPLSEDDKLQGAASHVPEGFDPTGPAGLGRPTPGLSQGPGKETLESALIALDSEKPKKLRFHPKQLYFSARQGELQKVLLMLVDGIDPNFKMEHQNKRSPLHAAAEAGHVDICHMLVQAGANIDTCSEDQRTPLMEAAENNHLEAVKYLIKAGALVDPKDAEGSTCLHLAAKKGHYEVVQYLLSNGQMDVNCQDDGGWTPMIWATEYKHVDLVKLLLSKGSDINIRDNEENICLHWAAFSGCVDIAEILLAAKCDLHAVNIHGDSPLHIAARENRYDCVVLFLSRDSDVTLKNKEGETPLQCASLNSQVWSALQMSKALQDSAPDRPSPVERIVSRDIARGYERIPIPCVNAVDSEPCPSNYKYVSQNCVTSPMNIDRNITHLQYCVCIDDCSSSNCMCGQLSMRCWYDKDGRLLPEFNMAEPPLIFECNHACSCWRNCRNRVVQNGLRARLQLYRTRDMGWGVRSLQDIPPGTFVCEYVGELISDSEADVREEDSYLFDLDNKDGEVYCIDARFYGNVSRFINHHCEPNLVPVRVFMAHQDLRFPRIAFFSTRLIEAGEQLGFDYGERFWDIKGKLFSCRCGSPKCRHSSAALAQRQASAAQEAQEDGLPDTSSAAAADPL
Experimental: (§1) The methyltransferase selectivity was assessed at two compound concentrations of 1 and 10 μM by radiometric assays using tritiated-SAM. For methyltransferases: MLL1, MLL3, EZH1 (PRC2), and EZH2 (PRC2), G9a, GLP, SUV39H1, SUV39H2, SUV420H1, SUV420H2, SETD2, SETD8, SETDB1, SETD7, PRMT1, PRMT3, PRMT4, PRMT5/ MEP50 complex, PRMT6, PRMT7, PRMT8, PRMT9, PRDM9, SMYD2, SMYD3, DNMT1, and BCDIN3D the incorporation of a tritium-labeled methyl group into biotinylated substrate was monitored using scintillation proximity assay (SPA). Briefly, a 10 μL reaction containing ^3H-SAM and substrate at concentrations close to the apparent Km values for each enzyme (balanced conditions) was prepared. The reactions were quenched with 10 μL of 7.5 M guanidine hydrochloride; 180 μL of 20 mM Tris buffer (pH 8.0) were added, and the mixture was transferred to a 96-well FlashPlate and incubated for 1 h. The counts per minute (CPM) was measured on a TopCount plate reader. The CPM in the absence of compound or enzyme was defined as 100% activity and background (0%), respectively, for each dataset[74]–[76]. Selectivity of SGC8158 against 342 kinases was evaluated in a kinase panel TR-FRET assay at 1 and 0.1 μM compound in duplicates as described before. Briefly, tagged kinases were incubated with compound and staurosporine-based fluorescent probe where the binding was detected using Tb conjugated anti-tag antibody energy transfer to the probe. Excitation wavelength was 337 nm and fluorescent emission signal was measured for Tb (486 nm) and fluorescent probe (BODIPY, 515 nm). Specific and non-specific binding was determined in the absence and presence of unlabeled staurosporine.

MLL1 = molecular target: T2, MLL1 (Homo sapiens, UniProt Q03164)
T2 construct: gene KMT2A
Experimental: as §1

SMYD3 = molecular target: T3, SMYD3 (Homo sapiens, UniProt Q9H7B4)
T3 sequence (Q9H7B4 1-428): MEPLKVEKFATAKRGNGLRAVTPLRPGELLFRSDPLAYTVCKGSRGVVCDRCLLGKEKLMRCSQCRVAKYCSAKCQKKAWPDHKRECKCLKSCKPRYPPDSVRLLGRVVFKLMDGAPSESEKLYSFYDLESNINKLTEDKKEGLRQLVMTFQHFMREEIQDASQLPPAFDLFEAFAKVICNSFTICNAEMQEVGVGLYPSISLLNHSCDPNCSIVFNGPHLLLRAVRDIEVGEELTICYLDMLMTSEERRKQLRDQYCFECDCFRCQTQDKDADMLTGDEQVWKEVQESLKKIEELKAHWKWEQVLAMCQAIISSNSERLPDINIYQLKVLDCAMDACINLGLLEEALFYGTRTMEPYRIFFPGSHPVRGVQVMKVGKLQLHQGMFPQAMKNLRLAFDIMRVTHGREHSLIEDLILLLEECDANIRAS
Experimental: as §1

T2 sequence (Q03164 whole entry): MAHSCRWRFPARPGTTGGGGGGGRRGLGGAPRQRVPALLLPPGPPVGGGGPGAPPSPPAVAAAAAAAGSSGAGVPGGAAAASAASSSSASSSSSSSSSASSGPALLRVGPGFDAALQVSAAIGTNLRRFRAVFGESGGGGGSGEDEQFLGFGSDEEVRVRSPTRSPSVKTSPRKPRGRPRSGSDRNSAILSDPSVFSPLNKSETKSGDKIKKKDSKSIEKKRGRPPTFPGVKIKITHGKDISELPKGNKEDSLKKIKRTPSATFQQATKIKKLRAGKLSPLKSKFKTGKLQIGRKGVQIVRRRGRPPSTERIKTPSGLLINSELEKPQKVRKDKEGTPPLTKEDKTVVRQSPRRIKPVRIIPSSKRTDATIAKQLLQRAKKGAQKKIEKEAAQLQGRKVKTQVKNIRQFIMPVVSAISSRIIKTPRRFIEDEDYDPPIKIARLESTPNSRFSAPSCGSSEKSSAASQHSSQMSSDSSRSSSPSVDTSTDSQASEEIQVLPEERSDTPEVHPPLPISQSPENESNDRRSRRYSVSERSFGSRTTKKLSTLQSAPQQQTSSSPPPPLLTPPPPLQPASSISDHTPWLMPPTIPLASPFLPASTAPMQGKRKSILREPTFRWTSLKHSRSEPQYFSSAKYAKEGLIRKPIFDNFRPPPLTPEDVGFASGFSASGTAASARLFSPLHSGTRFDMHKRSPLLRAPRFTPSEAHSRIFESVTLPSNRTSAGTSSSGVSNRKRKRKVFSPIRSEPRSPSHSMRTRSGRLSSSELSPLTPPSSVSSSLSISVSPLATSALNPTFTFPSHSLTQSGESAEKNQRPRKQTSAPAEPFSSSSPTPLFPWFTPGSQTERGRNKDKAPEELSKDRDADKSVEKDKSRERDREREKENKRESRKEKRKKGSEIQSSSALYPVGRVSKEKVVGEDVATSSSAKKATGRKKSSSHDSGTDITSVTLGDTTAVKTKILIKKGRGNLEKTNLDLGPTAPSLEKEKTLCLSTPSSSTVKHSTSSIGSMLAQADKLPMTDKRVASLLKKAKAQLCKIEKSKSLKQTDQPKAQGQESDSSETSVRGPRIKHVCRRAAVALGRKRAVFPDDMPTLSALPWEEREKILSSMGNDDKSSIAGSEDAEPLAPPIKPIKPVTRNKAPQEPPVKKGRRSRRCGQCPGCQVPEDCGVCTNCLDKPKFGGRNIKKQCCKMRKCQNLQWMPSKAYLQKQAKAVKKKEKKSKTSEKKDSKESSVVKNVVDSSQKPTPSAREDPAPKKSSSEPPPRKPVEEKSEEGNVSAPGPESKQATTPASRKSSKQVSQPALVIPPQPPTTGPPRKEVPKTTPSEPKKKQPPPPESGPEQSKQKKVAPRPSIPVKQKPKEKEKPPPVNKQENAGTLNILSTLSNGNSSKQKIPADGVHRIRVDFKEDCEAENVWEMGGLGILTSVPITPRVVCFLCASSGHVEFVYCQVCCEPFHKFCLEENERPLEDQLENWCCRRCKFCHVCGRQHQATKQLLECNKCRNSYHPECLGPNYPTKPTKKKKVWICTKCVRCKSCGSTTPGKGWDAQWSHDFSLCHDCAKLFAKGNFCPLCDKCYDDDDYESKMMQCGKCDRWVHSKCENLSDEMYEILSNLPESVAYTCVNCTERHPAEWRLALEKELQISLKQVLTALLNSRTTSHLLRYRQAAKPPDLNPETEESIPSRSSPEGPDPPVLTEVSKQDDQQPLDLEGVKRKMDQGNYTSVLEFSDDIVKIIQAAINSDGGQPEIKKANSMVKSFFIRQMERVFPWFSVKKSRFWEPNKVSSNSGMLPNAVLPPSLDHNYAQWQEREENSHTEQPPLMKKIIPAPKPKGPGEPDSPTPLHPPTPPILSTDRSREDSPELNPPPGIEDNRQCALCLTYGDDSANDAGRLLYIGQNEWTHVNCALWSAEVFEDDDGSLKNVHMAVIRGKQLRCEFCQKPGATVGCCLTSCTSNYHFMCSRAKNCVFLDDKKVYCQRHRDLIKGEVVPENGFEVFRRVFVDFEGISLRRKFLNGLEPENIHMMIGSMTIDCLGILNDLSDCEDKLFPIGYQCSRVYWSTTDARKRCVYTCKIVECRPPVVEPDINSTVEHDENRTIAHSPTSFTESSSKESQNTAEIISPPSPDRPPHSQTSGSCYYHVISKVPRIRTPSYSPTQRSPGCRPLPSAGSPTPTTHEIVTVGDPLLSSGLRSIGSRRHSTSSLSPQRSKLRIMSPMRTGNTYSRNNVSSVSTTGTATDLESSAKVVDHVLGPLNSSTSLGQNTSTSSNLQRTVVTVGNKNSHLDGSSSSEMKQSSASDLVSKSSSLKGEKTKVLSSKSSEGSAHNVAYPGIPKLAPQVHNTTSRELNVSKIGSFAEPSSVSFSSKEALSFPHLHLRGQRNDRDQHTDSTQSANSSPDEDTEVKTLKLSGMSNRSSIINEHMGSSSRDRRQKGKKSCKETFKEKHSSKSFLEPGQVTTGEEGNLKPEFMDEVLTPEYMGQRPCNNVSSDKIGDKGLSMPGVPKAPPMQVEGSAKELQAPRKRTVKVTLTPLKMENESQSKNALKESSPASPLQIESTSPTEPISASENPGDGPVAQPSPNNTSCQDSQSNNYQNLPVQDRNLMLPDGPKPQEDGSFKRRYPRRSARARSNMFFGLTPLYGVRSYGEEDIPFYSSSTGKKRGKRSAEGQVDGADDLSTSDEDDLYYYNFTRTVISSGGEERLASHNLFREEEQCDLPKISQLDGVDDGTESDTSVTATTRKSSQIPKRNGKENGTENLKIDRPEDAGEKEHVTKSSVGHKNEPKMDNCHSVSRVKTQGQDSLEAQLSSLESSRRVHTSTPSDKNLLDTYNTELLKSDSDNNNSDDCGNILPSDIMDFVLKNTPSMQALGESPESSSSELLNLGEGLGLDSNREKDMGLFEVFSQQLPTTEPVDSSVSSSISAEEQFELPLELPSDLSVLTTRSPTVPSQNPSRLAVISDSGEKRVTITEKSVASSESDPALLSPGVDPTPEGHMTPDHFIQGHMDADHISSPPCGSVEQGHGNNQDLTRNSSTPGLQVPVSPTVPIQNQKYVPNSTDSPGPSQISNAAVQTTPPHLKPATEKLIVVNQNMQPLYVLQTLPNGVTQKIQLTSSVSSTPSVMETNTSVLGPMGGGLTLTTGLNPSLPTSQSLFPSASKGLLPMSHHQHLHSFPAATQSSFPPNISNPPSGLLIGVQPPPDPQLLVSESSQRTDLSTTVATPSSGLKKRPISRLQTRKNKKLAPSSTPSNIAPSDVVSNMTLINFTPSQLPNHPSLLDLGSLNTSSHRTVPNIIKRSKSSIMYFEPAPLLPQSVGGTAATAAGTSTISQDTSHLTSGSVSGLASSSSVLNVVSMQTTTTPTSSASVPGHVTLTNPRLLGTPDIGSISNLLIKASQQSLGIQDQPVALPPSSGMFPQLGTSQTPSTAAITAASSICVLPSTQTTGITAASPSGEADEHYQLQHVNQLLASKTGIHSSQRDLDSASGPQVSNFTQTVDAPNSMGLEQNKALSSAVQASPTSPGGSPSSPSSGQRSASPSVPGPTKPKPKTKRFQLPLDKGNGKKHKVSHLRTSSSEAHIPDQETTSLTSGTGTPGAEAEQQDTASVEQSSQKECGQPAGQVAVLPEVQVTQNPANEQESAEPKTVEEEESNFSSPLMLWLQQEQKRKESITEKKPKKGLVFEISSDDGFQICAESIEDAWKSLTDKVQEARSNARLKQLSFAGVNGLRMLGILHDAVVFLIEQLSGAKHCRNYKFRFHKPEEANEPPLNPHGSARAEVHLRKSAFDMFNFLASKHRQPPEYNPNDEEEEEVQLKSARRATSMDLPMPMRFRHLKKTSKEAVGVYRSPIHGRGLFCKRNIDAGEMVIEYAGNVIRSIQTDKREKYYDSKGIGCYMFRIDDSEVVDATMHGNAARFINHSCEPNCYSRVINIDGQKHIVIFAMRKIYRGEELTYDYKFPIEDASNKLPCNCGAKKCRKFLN

Structure (SMILES)	remaining activity at 1 µM (GLP)	remaining activity at 10 µM (GLP)	remaining activity at 1 µM (MLL1)	remaining activity at 10 µM (MLL1)	remaining activity at 1 µM (SMYD3)	remaining activity at 10 µM (SMYD3)
CC1(C)O[C@@H]2[C@H](O1)[C@@H](CSCCCCNCc1cccc(-c3ccc(Cl)cc3)c1)O[C@H]2n1cnc2c(N)ncnc21 [SGC8158N]	95%	90%	101%	98%	100%	102%
Nc1ncnc2c1ncn2[C@@H]1O[C@H](CSCCCCNCc2cccc(-c3ccc(Cl)cc3)c2)[C@@H](O)[C@H]1O [SGC8158]	99%	95%	106%	99%	102%	104%

Source: paper PMC7224190, “Pharmacological inhibition of PRMT7 links arginine monomethylation to the cellular stress response” (Nature Communications, 2020)
